Drawing on ChEMBL document CHEMBL1148593, “Matrix metalloproteinase target family landscape: a chemometrical approach to ligand selectivity based on protein binding site analysis” (J Med Chem, 2006), this text covers IC50, Ki and inhibition for five compounds.

One experiment deals with Stromelysin-1 (Homo sapiens, UniProt P08254). Nature of the experiment: Binding affinity to MMP3.
Experiment [1] addresses 72 kDa type IV collagenase (Homo sapiens, UniProt P08253). Nature of the experiment: Binding affinity to MMP2.
The next experiment concerns the target T1, Interstitial collagenase (Homo sapiens, UniProt P03956).
T1 sequence (P03956 whole entry): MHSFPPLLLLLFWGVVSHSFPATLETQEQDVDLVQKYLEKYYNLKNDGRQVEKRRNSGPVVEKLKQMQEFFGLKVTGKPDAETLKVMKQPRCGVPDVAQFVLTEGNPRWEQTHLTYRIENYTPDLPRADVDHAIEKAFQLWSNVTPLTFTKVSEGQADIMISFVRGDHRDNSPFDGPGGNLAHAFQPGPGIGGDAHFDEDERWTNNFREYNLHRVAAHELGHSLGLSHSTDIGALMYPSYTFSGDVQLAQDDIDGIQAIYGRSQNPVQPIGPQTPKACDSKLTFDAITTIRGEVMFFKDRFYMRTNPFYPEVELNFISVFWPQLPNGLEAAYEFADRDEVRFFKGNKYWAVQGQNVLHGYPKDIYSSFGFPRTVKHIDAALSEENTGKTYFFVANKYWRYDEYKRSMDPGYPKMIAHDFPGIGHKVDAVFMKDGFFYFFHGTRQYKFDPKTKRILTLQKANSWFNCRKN
Kind of experiment: Binding affinity to MMP1.

A further experiment concerns the target T2, Matrilysin (Homo sapiens, UniProt P09237).
T2 sequence (P09237 whole entry): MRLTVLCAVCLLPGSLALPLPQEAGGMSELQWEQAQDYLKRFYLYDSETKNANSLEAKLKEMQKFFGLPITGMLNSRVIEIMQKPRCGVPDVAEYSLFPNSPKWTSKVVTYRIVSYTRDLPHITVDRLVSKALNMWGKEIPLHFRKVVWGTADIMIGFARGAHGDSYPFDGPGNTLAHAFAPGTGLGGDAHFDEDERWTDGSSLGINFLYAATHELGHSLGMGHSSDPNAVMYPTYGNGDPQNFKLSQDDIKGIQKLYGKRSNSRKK
Kind of experiment: Binding affinity to MMP7.

Experiment [2] addresses Matrix metalloproteinase-9 (Homo sapiens, UniProt P14780). Nature of the experiment: Binding affinity to MMP9.
The next experiment has as its target Neutrophil collagenase (Homo sapiens, UniProt P22894). Kind of experiment: Binding affinity to MMP8.
The target in experiment [3] is T3, Interstitial collagenase (Homo sapiens) (UniProt P03956).
T3 sequence (whole entry): T1 sequence (P03956 whole entry)
Kind of experiment: Inhibition of MMP1 at 2 uM.

The target of experiment [4] is T4, Matrilysin (Homo sapiens) (UniProt P09237).
T4 sequence (whole entry): T2 sequence (P09237 whole entry)
Kind of experiment: Inhibition of MMP7 at 2 uM.

The next experiment has as its target T5, Stromelysin-3 (Homo sapiens, UniProt P24347).
T5 sequence (P24347 whole entry): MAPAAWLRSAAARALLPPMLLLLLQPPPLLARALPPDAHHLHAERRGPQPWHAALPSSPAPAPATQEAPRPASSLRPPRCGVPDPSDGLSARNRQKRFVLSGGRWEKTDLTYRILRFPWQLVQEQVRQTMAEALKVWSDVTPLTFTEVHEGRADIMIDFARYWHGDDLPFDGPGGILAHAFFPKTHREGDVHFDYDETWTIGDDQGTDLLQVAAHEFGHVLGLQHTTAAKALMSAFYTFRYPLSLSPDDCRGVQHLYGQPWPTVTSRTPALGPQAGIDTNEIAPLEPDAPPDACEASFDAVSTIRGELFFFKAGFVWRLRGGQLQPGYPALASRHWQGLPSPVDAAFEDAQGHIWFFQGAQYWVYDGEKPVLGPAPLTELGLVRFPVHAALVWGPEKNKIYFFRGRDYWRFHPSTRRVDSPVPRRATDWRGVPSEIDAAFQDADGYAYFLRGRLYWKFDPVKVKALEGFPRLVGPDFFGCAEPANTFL
Nature of the experiment: Binding affinity to MMP11.

Chain of 72 kDa type IV collagenase (P08253 whole entry): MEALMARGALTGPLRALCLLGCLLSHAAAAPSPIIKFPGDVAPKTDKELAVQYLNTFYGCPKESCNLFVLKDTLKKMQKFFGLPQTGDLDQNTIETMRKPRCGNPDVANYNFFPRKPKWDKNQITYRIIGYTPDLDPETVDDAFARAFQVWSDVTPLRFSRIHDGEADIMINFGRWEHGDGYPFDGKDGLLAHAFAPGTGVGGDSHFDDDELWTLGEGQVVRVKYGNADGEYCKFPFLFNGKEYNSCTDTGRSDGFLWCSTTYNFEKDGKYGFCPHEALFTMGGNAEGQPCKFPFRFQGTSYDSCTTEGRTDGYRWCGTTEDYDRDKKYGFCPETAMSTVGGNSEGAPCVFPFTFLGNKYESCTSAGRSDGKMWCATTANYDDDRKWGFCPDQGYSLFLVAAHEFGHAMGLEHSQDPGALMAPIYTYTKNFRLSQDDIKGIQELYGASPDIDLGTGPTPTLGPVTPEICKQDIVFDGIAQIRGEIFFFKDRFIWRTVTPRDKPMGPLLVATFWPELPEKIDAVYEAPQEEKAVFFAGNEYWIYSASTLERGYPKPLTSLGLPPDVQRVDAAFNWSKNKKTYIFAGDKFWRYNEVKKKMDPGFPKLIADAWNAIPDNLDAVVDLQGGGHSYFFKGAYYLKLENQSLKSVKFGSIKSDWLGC
Chain of Neutrophil collagenase (P22894 whole entry): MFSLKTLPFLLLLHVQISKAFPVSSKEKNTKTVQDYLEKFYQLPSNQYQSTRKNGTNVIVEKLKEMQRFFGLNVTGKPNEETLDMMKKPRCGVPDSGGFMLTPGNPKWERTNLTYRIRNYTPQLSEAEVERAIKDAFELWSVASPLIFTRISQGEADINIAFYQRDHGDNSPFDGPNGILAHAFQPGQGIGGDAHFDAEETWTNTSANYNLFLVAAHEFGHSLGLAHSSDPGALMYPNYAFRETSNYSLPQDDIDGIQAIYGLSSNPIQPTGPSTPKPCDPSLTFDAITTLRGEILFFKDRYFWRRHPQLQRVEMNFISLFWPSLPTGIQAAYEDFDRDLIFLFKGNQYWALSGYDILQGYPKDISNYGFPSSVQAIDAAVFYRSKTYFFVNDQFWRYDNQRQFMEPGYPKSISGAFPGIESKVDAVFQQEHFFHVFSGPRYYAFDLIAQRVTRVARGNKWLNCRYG
Chain of Stromelysin-1 (P08254 whole entry): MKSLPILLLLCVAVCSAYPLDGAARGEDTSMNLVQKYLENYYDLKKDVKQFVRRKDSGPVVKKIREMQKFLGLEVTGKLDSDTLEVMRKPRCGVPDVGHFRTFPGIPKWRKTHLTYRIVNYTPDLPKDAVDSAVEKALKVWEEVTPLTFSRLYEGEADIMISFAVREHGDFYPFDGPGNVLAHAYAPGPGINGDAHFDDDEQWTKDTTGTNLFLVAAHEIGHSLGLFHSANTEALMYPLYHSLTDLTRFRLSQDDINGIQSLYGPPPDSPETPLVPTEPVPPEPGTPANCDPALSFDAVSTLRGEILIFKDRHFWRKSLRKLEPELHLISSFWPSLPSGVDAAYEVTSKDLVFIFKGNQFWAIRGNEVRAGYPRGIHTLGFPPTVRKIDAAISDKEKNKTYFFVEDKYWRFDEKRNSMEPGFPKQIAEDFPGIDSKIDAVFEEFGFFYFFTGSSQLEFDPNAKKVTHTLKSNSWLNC
Chain of Matrix metalloproteinase-9 (P14780 whole entry): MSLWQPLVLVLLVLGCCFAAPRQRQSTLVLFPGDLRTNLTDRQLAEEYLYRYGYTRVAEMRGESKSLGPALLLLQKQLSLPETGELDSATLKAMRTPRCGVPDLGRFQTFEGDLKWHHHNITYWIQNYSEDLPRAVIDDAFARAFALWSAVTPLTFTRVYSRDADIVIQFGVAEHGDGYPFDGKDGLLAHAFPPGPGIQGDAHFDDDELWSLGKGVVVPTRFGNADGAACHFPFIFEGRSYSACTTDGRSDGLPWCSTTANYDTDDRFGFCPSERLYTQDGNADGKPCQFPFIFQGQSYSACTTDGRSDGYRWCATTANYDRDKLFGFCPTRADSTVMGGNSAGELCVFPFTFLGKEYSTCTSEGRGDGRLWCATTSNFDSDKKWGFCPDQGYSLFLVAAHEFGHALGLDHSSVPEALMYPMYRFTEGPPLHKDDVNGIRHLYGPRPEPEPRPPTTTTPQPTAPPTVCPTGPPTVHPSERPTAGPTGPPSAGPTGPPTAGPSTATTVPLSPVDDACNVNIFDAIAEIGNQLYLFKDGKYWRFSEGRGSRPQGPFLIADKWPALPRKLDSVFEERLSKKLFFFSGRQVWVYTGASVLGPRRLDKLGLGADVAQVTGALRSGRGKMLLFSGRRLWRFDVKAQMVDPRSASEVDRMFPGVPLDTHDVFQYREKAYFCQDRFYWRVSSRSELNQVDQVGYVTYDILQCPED

For `O=C(Nc1ccc(S(=O)(=O)C[C@@H](Cc2c[nH]c3ccccc23)C(=O)O)cc1)c1ccc(Br)cc1`, the IC50 at Stromelysin-1 is over 1000 nM; in experiment [1], 2.6 nM; on Interstitial collagenase it was over 1000 nM; on Matrilysin it was over 1000 nM; in experiment [2], 2.7 nM.

As to `CC(C)CC(C(=O)N[C@H]1CCCCCCCCCCNC1=O)[C@H](O)C(=O)NO` (stereo not given in full), the concentration for half-maximal inhibition (IC50) on Stromelysin-1 is 500 nM; in experiment [1], 20 nM; at Interstitial collagenase it was 30 nM; on Neutrophil collagenase, 20 nM; at Matrilysin, 200 nM.

Take `O=C(O)C1Cc2ccccc2CN1S(=O)(=O)CCc1ccc(-c2ccc(Cl)cc2)cc1` (stereo not given): the IC50 is over 10000 nM at Interstitial collagenase and 10 nM on Neutrophil collagenase.

On to `CNC(=O)C1CCCCNC(=O)CCC(C(=O)O)NC(CCc2ccccc2)C(=O)N1` (stereo not given), for which the Ki on Stromelysin-1 worked out at 2900 nM; in experiment [1], 8100 nM; on Neutrophil collagenase it was 17 nM; in experiment [2] it was 6600 nM.

Take `NC(=O)C(Cc1c[nH]c2ccccc12)NC(=O)C(CCCc1ccccc1)CP(=O)(O)C(Cc1ccccc1)NC(=O)OCc1ccccc1` (stereo not given): the inhibition in [3] was 23%; in experiment [4] it was 8%. The same compound returned an IC50 at Neutrophil collagenase of 2.5 nM. Besides, affinity at Stromelysin-3 was put at a Ki of 5 nM.
